Experimental data reported in patent US5741794A, “Heterocyclic sulfonamide derivatives as antagonists of PAF and angiotensin II” (British Biotech Pharmaceuticals Limited, priority 1992, dated 1998).

Biological target: T1, PAF receptor (Homo sapiens, UniProt P25105)
T1 construct: from tissue; host or cells: human platelets (platelet concentrates from a hospital blood bank), lysed platelet membranes
Experiment: Inhibition of [^3 H]-PAF Receptor Binding (human platelet plasma membrane)
Details: 0.5 nM [^3 H]-PAF, 0° C., 1 hour incubation, pH 7.0
Procedure: Inhibition of [^3 H]-PAF Receptor Binding
The inhibition of [^3 H]-PAF binding to human platelet plasma membrane by compounds of general formula I was determined by isotopic labelling and filtration techniques. Platelet concentrates were obtained from a hospital blood bank. These platelet concentrates (500-2500 mi.) were centrifuged at 800 rpm for 10 minutes in a SORVALL RC3B centrifuge to remove the red blood cells present. (The word SORVALL is a trade mark.) The supernatant was subsequently centrifuged at 3,000 rpm in a SORVALL RC3B centrifuge to pellet the platelets present. The platelet rich pellets were resuspended in a minimum volume of buffer (150 mM NaCl, 10 mM Tris, 2 mM EDTA, pH 7.5) and layered onto Ficoll-Paque gradients, 9 ml platelet concentrate to 2 ml Ficoll, and centrifuged at 1,900 rpm for 15 minutes in a SORVALL RT6000 centrifuge. This step removes the residual red blood cells and other nonspecific material such as lymphocytes from the preparation. The platelets which form a band between the plasma and the Ficoll were removed, resuspended in the above buffer and centrifuged at 3,000 rpm for 10 minutes in a SORVALL RT6000 centrifuge. The pelleted platelets were resuspended in buffer (10 mM Tris, 5 mM MgCl2, 2 mM EDTA, pH 7.0), snap freezed in liquid N2 and allowed to thaw slowly at room temperature in order to lyse the platelets. The latter step was repeated at least 3 times to ensure proper lysis. The lysed platelets were centrifuged at 3,000 rpm for 10 minutes in a SORVALL RT6000 centrifuge and resuspended in buffer. The latter step was repeated twice in order to remove any cytoplasmic proteins which may hydrolyse the platelet activating factor (PAF) receptor. The prepared platelet membranes may be stored at -70° C. After thawing the prepared membranes were centrifuged in a SORVALL RT6000 at 3,000 rpm for 10 minutes and resuspended in assay buffer.
The assay was conducted by preparing a series of Tris-buffered solutions of the selected antagonist of predetermined concentrations. […] Each washed residue was dried under vacuum on a sampling manifold and placed into vials containing 20 ml of OPTIPHASE MP scintillation fluid and the radioactivity counted in a liquid scintillation counter. (The word OPTIPHASE is a trade mark.) Defining the counts for total binding with antagonist from a test sample as "TBA"; the counts for total binding from the control sample C1 as "TB"; and the counts for nonspecific binding from the control sample C2 as "NSB", the percent inhibition of each test antagonist can be determined by the following equation: […]

T1 sequence (P25105 whole entry): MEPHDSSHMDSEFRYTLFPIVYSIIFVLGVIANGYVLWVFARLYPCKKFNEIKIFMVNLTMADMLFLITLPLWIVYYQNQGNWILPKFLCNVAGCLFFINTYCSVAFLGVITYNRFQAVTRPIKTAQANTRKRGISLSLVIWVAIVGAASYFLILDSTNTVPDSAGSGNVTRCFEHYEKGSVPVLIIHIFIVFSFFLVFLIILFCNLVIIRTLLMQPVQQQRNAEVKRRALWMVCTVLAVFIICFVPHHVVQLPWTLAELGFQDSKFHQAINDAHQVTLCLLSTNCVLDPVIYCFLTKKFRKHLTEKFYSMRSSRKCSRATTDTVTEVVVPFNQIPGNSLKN

Compared with CCOC(=O)[C@H](CC(C)C)NS(=O)(=O)c1ccc(Cn2ccnc2-c2ccccc2)cc1 [Example 1, N-4-(1H-2-Phenylimidazolylmethyl)phenylsulphonyl-L-leucine ethyl ester], CCOC[C@H](CC(C)C)NS(=O)(=O)c1ccc(Cn2cnc3cccnc32)cc1 [Example 45A, N-4-(3H-Imidazo[4,5-b]pyridylmethyl)phenylsulphonyl-L-leucinyl ethyl ether] is 2.9-fold higher in IC50: 7 nM for the first, 20 nM for the second.

CCCCc1nc(Cl)c(CO)n1Cc1ccc(S(=O)(=O)N[C@@H](CC(C)C)C(=O)OCC)cc1 [Example 4, N-4-(1H-2-Butyl-4-chloro-5-hydroxymethylimidazolylmethyl)phenylsulphonyl-L-leucine ethyl ester] and CCc1nccn1Cc1ccc(S(=O)(=O)N(C)[C@@H](CC(C)C)C(=O)OC)cc1 [Example 43, N-Methyl-N-4-(1H-2-ethylimidazolylmethyl)phenylsulphonyl-L-leucine methyl ester] are the same in IC50: 5 nM for the first, 5 nM for the second.
